# Reference: patent US9579318B2, “Histamine 4 receptor partial agonists, inverse agonists or antagonists for use in treating non-autoimmune uveitis” (UCL BUSINESS PLC, priority 2013, dated 2017)
# Experiments:
# [1] = test system: experimental autoimmune uveitis (EAU) in C57B1/6 mice; experiment: Experimental autoimmune uveitis (EAU) model, therapeutic treatment, histological scoring; type: in vivo; conditions: EAU C57B1/6 mice, disease established, 5 doses, eyes harvested day 19 (FIG. 1)
# Description: Whilst CD4+T cells are crucial for disease induction, it is now established in the literature (see Dick et al 2012) that tissue resident cells (microglia, macrophages) and infiltrating inflammatory cells (CD11b+granulocytes) contribute to the perpetuation of the inflammation in the C57BL/6 mouse, where evidence of retinal inflammation can be observed up to day 56 post immunization. In our study EAU was induced in C57B1/6 mice using subcutaneous administration of IRBP peptide emulsified in complete Freund's adjuvant (CFA) supplemented with […] mycobacterium, and intraperitoneal immunisation with Pertussis toxin. Clinical signs of EAU disease were monitored using non-invasive retinal fundus imaging (TEFI) until signs of retinal inflammatory disease were observed (usually by day 14). At this point mice were divided into treatment groups. A total of 45 mice were used, with groups as follows: CFA controls n=4; EAU controls n=6; JNJ 7777120 16 mg/kg n=5; 994 10 mg/kg n=5; 994 30 mg/kg n=5; 994 100 mg/kg n=5; 1006 10 mg/kg n=5; 1006 30 mg/kg n=5; 1006 100 mg/kg n=5. Each treatment group of mice received 5 intraperitoneal doses of compound, once per day, until day 19 when eyes were harvested. At this point eyes were processed and fixed, and histological sections were prepared. Histological scoring by light microscopy was done according to established methods (Gegg et al, 2005) where a score of 1.0 reflects inflammatory cells present in the vitreous cavity but not throughout the retinal layers, and the photoreceptor layer is as normal. A score of 2.0 reflects cells within the outer retinal layers, with some granuloma formation. A score of 3.0 reflects cells within the photoreceptor layer, some retinal folding, a focal loss of photoreceptor cells. […] This is an impressive effect since disease was already established. In most treatment studies mice are pretreated with drug prior to inducing EAU.
# [2] = test system: endotoxin induced uveitis (EIU) in mice; experiment: Endotoxin induced uveitis (EIU) model, CD11b+ cells in retina by flow cytometry; type: in vivo; conditions: pretreated with 0.1, 1.0 and 10.0 mM eyedrops twice daily for 3 days before LPS, eyes harvested 24 hours later (FIG. 2)
# Protocol: EIU is a more acute form of anterior uveitis, induced by intraperitoneal immunization with LPS (endotoxin), and clinical signs of uveitis can be observed within 24-48 hours post immunisation. Due to the narrow time frame of disease, in our study mice (n=2 per group) were pretreated with three different concentrations of JNJ777120 compound (0.1, 1.0 and 10.0 mM) given twice daily as eyedrops for 3 days prior to inducing EIU, and eyes harvested 24 hours later. In this study, retinas were dissected from each eye and single cell suspensions prepared for staining with CD11b (to stain for granulocytes), and analysed by flow cytometry, Each eye was kept separate, so results are shown as means of 4 retinae in each group, in comparison with 6 eyes from 3 EIU non-treated control mice.
structure (smiles),measurement,setting,value
Cc1ccc(CNc2cc(N3CCN(C)CC3)nc(N)n2)cc1.O=C(O)/C=C\C(=O)O [compound 994],"histological scores (retinal inflammation, light microscopy)",[1]; 100 mg/kg i.p. once per day,reduced the histological scores to control levels
"CN1CCN(C(=O)c2cc3cc(Cl)ccc3[nH]2)CC1 [JNJ7777120, 1-[(5-chloro-1H-indol-2-yl)carbonyl]-4-methylpiperazine]",levels of infiltrating granulocytes (numbers of CD11b+ cells in retina),[2],significantly decreased the levels of infiltrating granulocytes
same,"histological scores (retinal inflammation, light microscopy)",[1]; 16 mg/kg i.p. once per day,reduced the histological scores to control levels
CN1CCN(c2cc(NCc3c(Cl)cccc3Cl)nc(N)n2)CC1.O=C(O)/C=C\C(=O)O [compound 1006],"histological scores (retinal inflammation, light microscopy)",[1]; 30 mg/kg i.p. once per day,reduced the histological scores to control levels
